Where two headings read alike, the source gives them in different places.

By IC50 is commonly meant the point on the concentration scale where inhibition reaches its midpoint.

The subject of one experiment is SW620 cells. The experiment can be described thus: Inhibitory effect on SW620 cells (cell survival rate at 48 h). The experiment is classed as cell-based. The settings on record: read-out: IC50, inhibitory effects on SW620 cells. How it is done:
(§1) Compound I was prepared with the same concentration gradient for primary screening, and compounds with lower IC50 than indacaterol were screened for secondary screening with concentration gradients of 1, 2, 4, and 8 μM.
(§2) Both rounds of screening were performed on the colorectal cancer cell line SW620 with an initial cell number of 5000 cells per well, and the cell survival rate at 48 h was determined directly to determine the IC50 of the compound.
(§3) Cell viability=[(reading of experimental group−reading of blank group)/(reading of control group−reading of blank group)]×100%.

Another experiment has as its system RKO cells. The experiment can be described thus: Inhibitory effect on RKO cells (cell survival rate at 48 h). The experiment is classed as cell-based, Human. Particulars: procedures as for SW620, 48 h, read-out: IC50, inhibitory effects on RKO cells. How it is done:
as §1, §2, §3

The next experiment relates to HT29 cells. The experiment is described as follows: Inhibitory effect on HT29 cells (cell survival rate at 48 h). Particulars: HT29, procedures as for SW620, 48 h, read-out: IC50, inhibitory effects on HT29 cells. It is filed as cell-based, Human. How it is done: as §1, §2, §3
The target of another experiment is T1, SRSF6 protein (Homo sapiens, UniProt Q13247).
T1 sequence (Q13247 1-183): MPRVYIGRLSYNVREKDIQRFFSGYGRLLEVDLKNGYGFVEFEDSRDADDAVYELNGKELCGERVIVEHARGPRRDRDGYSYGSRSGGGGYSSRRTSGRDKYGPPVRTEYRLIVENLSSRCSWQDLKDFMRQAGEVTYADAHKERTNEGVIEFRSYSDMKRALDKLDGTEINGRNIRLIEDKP
The experiment is described as follows: SRSF6 protein thermal shift assay. The experiment is classed as binding. The settings on record: for migration of SRSF6 protein compared with DMSO: in words. An excerpt:
SRSF proteins play an important role in the regulation of gene expression, including constitutive splicing, alternative splicing, mRNA nuclear export and translation. SRSF proteins can be divided into two groups according to the number of RRM domains. Among them, SRSF6 has RRM1 and RRM2 domains. The RRM1 domain contains conserved sequences of RNP-1 and RNP-2, which can bind to related mRNAs. However, the RRM2 domain contains the evolutionarily conserved SWQDLKD heptapeptide sequence. RRM1 and RRM2 domains play irreplaceable roles in the specific recognition of alternative splice sites. Overexpression of SRSF6 induced colorectal carcinogenesis by binding to cell adhesion factor ZO-1, while indacaterol was validated to inhibit tumor development. Therefore, RRM1 and RRM2 domains of SRSF6 were extracted and the binding ability of compound I1 to SRSF6 was investigated by protein thermal shift assay using LYW1 as a reference.
We used DMSO as the blank group, and 56.5 μM SRSF6 protein was added to the PCR tube with LYW1 and I1 at a concentration of 1:10, respectively. After TS dye was added in the dark, the thermal migration assay was performed.

Setting [1] is: Homo sapiens, SW-620, 48 h, SW620, 5000 cells per well.

In the case of `CCc1cc2c(cc1CC)CC(NC[C@@H](O)c1ccc(OCc3ccc(C)cc3)c3[nH]c(=O)ccc13)C2` [Compound I4, (S)-5-(2-((5,6-diethyl-2,3-dihydro-1H-inden-2-yl)amino)-1-hydroxyethyl)-8-((4-methylbenzyl)oxy)quinolin-2(1H)-one], in the experiment with SW620 cells (setting [1]), the IC50 amounted to 2.9 µM.
As to `CCc1cc2c(cc1CC)CC(NC[C@@H](O)c1ccc(OCc3ccc(F)cc3)c3[nH]c(=O)ccc13)C2` [Compound I1, (S)-5-(2-((5,6-diethyl-2,3-dihydro-1H-inden-2-yl)amino)-1-hydroxyethyl)-8-((4-fluorobenzyl)oxy)quinolin-2(1H)-one], the IC50 was determined as 3.12 µM in the experiment with SW620 cells (Homo sapiens, SW-620, SW620, 5000 cells per well); 1.42 µM in the experiment with RKO cells (Homo sapiens); 1.42 µM in the experiment with HT29 cells (Homo sapiens, HT-29). Besides, the “binding effect with SRSF6 protein” value at SRSF6 protein (compared with LYW1, in words) is on record as “better binding effect”. For the same compound, on SRSF6 protein, the “migration of SRSF6 protein compared with DMSO” value was “negative migration”.
For `CCc1cc2c(cc1CC)CC(NC[C@@H](O)c1ccc(OCc3c(F)c(F)c(F)c(F)c3F)c3[nH]c(=O)ccc13)C2` [Compound I11, (S)-5-(2-((5,6-diethyl-2,3-dihydro-1H-inden-2-yl)amino)-1-hydroxyethyl)-8-((perfluorophenyl)methoxy)quinolin-2(1H)-one], in the experiment with SW620 cells (setting [1]), the IC50 worked out at 6.09 µM.
On the same count and under the same terms, the value for `CCc1cc2c(cc1CC)CC(NC[C@@H](O)c1ccc(OCc3ccc(F)c(F)c3)c3[nH]c(=O)ccc13)C2` [Compound I10, (S)-5-(2-((5,6-diethyl-2,3-dihydro-1H-inden-2-yl)amino)-1-hydroxyethyl)-8-((3,4-difluorobenzyl)oxy)quinolin-2(1H)-one] was 4.18 µM.
In the case of `CCc1cc2c(cc1CC)CC(NC[C@H](O)c1ccc(OCc3ccc(F)cc3)c3[nH]c(=O)ccc13)C2` [Compound I2, (R)-5-(2-((5,6-diethyl-2,3-dihydro-1H-inden-2-yl)amino)-1-hydroxyethyl)-8-((4-fluorobenzyl)oxy)quinolin-2(1H)-one], the IC50 in the experiment with SW620 cells (setting [1]) came to 8.62 µM; with RKO cells (Homo sapiens, 48 h) it was 5.56 µM; with HT29 cells (Homo sapiens, HT-29, 48 h), 4.69 µM.
For `CCc1cc2c(cc1CC)CC(NC[C@H](O)c1ccc(OCc3ccc(C)cc3)c3[nH]c(=O)ccc13)C2` [Compound I5, (R)-5-(2-((5,6-diethyl-2,3-dihydro-1H-inden-2-yl)amino)-1-hydroxyethyl)-8-((4-methylbenzyl)oxy)quinolin-2(1H)-one], the IC50 with SW620 cells (setting [1]) is 2.98 µM.
With `CCc1cc2c(cc1CC)CC(NC[C@H](O)c1ccc(OCc3cccc(F)c3)c3[nH]c(=O)ccc13)C2` [Compound I7, (R)-5-(2-((5,6-diethyl-2,3-dihydro-1H-inden-2-yl)amino)-1-hydroxyethyl)-8-((3-fluorobenzyl)oxy)quinolin-2(1H)-one], the IC50 with SW620 cells (setting [1]) is 2.73 µM; in the experiment on RKO cells (Homo sapiens, 48 h), 3.11 µM; in the experiment with HT29 cells (Homo sapiens, HT-29, 48 h), 2.66 µM.
For the compound `CCc1cc2c(cc1CC)CC(NC[C@H](O)c1ccc(OCc3ccccc3)c3[nH]c(=O)ccc13)C2` [LYW1, reference compound], the IC50 stood at 3.54 µM in the experiment with SW620 cells (setting [1]); 2.03 µM in the experiment with RKO cells (Homo sapiens, 48 h); 2.43 µM with HT29 cells (Homo sapiens, HT-29, 48 h). Moreover, the “migration of SRSF6 protein compared with DMSO” value on SRSF6 protein is on record as “negative migration”.
For `CCc1cc2c(cc1CC)CC(NC[C@@H](O)c1ccc(OCc3cccc(F)c3)c3[nH]c(=O)ccc13)C2` [Compound I6, (S)-5-(2-((5,6-diethyl-2,3-dihydro-1H-inden-2-yl)amino)-1-hydroxyethyl)-8-((3-fluorobenzyl)oxy)quinolin-2(1H)-one], the IC50 in the experiment on SW620 cells (setting [1]) was found to be 3.06 µM.
Still for that read-out and setting: the value for `CCc1cc2c(cc1CC)CC(NC[C@@H](O)c1ccc(OCc3cc(F)cc(F)c3)c3[nH]c(=O)ccc13)C2` [Compound I9, (S)-5-(2-((5,6-diethyl-2,3-dihydro-1H-inden-2-yl)amino)-1-hydroxyethyl)-8-((3,5-difluorobenzyl)oxy)quinolin-2(1H)-one] was 3.15 µM.
Regarding `CCc1cc2c(cc1CC)CC(NC[C@H](O)c1ccc(O)c3[nH]c(=O)ccc13)C2` [Indacaterol, reference compound], the IC50 was 20 to 25 µM in the experiment on SW620 cells (setting [1]); 23.1 µM in the experiment with SW620 cells (SW620, 5000 cells per well); 10 to 15 µM in the experiment with RKO cells (Homo sapiens, 48 h); 12.8 µM with RKO cells; 12.7 µM in the experiment on HT29 cells; 10 to 15 µM in the experiment with HT29 cells (Homo sapiens, HT-29, 48 h).

The values are drawn from patent publication US20240300893A1, “SMALL MOLECULE COMPOUNDS TARGETING SRSF6 PROTEIN AND THEIR PREPARATION METHODS AND APPLICATIONS” (CHINA PHARMACEUTICAL UNIVERSITY, priority 2021, published 2024).
